Measurements taken from US20230190611A1, “PERSONAL CARE COMPOSITIONS COMPRISING A METAL PIROCTONE COMPLEX” (Conopco, Inc., d/b/a UNILEVER, priority 2020, published 2023).

How the values were obtained:
[1] = Solubility of metal piroctone complexes in 5 wt% aqueous SLES 1EO solution; format: physicochemical; settings: 1% sample in 5 wt% aqueous solution of SLES 1EO at 20° C.
Description: The solubility of metal piroctone complexes at 20° C. in a 5 wt% aqueous solution of SLES 1EO (sodium lauryl ether sulfate) Is listed in Table 1: […]

[2] = UV stability of ethanolic solutions; format: physicochemical; settings: 5 hours of UV irradiation (UVA 180 uW/cm2, UVB210 uW/cm2)
Description: The UV stability of an ethanolic solutions (0.5 mM) of copper piroctone and manganese piroctone were measured and compared with a solution of Octopirox 1 mM solution.

| SMILES | % Solubility [1] [%] | degraded after UV irradiation ([2]; ethanolic solution 0.5 mM) [%] | degraded after UV irradiation ([2]; 1 mM solution) [%] |
| --- | --- | --- | --- |
| Cc1cc(CC(C)CC(C)(C)C)n([O-])c(=O)c1.Cc1cc(CC(C)CC(C)(C)C)n([O-])c(=O)c1.[Zn+2] (stereo not shown) [1% Zn—PIR, Zinc bis-piroctone, reference compound] | 111.8 |  |  |
| Cc1cc(CC(C)CC(C)(C)C)n([O-])c(=O)c1.Cc1cc(CC(C)CC(C)(C)C)n([O-])c(=O)c1.[Mn+2] (stereo not shown) [1% Mn—PIR, Manganese bis-piroctone] | 1.0 | 3.2 |  |
| Cc1cc(CC(C)CC(C)(C)C)n(O)c(=O)c1.NCCO (stereo not shown) [1% OCT, piroctone olamine, reference compound] | 100.2 |  | 46 |
| Cc1cc(CC(C)CC(C)(C)C)n([O-])c(=O)c1.Cc1cc(CC(C)CC(C)(C)C)n([O-])c(=O)c1.[Cu+2] (stereo not shown) [1% Cu—PIR, Copper bis-piroctone] | 1.3 | 1.8 |  |
